Where a name gives a salt, the structure may show the parent alone.
Molecular target: T1, 5-hydroxytryptamine receptor 3A (Mus musculus, UniProt P23979)
T1 sequence (P23979 whole entry): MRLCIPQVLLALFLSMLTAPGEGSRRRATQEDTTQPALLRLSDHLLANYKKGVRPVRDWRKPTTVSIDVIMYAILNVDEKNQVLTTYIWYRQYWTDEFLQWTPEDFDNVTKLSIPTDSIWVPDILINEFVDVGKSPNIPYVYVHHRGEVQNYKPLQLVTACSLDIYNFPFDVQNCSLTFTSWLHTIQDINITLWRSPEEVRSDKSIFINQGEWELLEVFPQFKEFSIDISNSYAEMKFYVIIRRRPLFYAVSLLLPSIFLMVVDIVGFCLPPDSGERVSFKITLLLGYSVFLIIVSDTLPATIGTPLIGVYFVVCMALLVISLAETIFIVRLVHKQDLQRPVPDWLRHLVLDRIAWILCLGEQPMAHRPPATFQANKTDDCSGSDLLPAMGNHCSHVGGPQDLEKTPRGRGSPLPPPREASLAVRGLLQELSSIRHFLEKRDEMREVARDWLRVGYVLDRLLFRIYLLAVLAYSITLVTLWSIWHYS

Ki | SMILES
0.21 nM | Cc1nc[nH]c1CCC(=O)c1cc2ccccc2n1C [CAS_124006]
0.94 nM | N=C(N)NC(=N)Nc1cccc(Cl)c1 [1-(3-CHLOROPHENYL)BIGUANIDE HYDROCHLORIDE]

SMILES | Ki
CN1C2CCC1CC(OC(=O)c1cc(Cl)cc(Cl)c1)C2 (stereo not drawn) [MDL 72222] | 13 nM
